Data from patent US11357760B2, “Method of treating liver fibrosis” (ChemoCentryx, Inc., priority 2016, dated 2022).

Legend:
[1] = system: HFD/fructose-induced NASH model; test: High fat diet (HFD)/fructose-induced NASH model; type: in vivo, mice C57Bl/6; details: 30 mg/kg subcutaneously once per day for 8 weeks
Description: Male wild-type (WT) mice C57Bl/6 were obtained from Jackson Laboratory and fed either with high-fat diet (D12492, 60 Cal % fat, Research Diets, New Brunswick, N.J.) with 30% fructose in the drink water or a lean control diet (D12450B, 10 Cal % fat, Research Diets) at 6-8 week of age and maintained on the respective diet for the duration of the study (16-32 weeks). […] Sirius red-staining was used to evaluate the severity of liver fibrosis. […] Formalin-fixed, paraffin-embedded liver sections were stained separately with hematoxylin & eosin (H&E) and for Sirius red Picrosirius red (#365548, Sigma) and evaluated for severity of liver fibrosis. All pathologic evaluations were made by a pathologist on a random and blinded basis. Collagen surface density was quantified using Image J (NIH). Two Sirius red-stained slides per animal were taken at different depth, with 18 images taken randomly per slide for a total of 36 images per animal for collagen quantification. Liver enzymes were assayed by Antech GLP (Morrisville, N.C.). Insulin was measured with Ultrasensitive. Mouse Insulin ELISA kit (Crystal Chem Inc: #90080); Blood glucose and insulin levels were determined after an overnight fast (14-16 h). Insulin sensitivity was determined by the homeostatic model assessment of insulin resistance (HOMA-IR). Lipids were measured in the serum and liver with a Triglyceride Colorimetric Assay kit (Cayman Chemical Company: #10010303), a Free Fatty Acid Quantification kit, (Abcam, ab65341) and Cholesterol Quantification kit (Abcam, ab65359).

[2] = system: MCD-induced NASH model; test: Methionine-choline deficient (MCD) induced NASH model; type: in vivo, mice C57Bl/6; details: Compound 1 subcutaneously, CVC orally; for serum ALT levels: FIG. 5; for trough drug level: 30 mg/kg
Procedure: Compound 1 was administered subcutaneously to maintain high systemic levels. […] Formalin-fixed, paraffin-embedded liver sections were stained separately with hematoxylin & eosin (H&E) and for Sirius red Picrosirius red (#365548, Sigma) and evaluated for severity of liver fibrosis. All pathologic evaluations were made by a pathologist on a random and blinded basis. Collagen surface density was quantified using Image J (NIH). Two Sirius red-stained slides per animal were taken at different depth, with 18 images taken randomly per slide for a total of 36 images per animal for collagen quantification. Liver enzymes were assayed by Antech GLP (Morrisville, N.C.). Insulin was measured with Ultrasensitive. Mouse Insulin ELISA kit (Crystal Chem Inc: #90080); Blood glucose and insulin levels were determined after an overnight fast (14-16 h). Insulin sensitivity was determined by the homeostatic model assessment of insulin resistance (HOMA-IR). Lipids were measured in the serum and liver with a Triglyceride Colorimetric Assay kit (Cayman Chemical Company: #10010303), a Free Fatty Acid Quantification kit, (Abcam, ab65341) and Cholesterol Quantification kit (Abcam, ab65359).

[3] = target: CCR5 (Homo sapiens, UniProt P51681); details: summary of Table 1
CCR5, sequence (P51681 whole entry, species assumed): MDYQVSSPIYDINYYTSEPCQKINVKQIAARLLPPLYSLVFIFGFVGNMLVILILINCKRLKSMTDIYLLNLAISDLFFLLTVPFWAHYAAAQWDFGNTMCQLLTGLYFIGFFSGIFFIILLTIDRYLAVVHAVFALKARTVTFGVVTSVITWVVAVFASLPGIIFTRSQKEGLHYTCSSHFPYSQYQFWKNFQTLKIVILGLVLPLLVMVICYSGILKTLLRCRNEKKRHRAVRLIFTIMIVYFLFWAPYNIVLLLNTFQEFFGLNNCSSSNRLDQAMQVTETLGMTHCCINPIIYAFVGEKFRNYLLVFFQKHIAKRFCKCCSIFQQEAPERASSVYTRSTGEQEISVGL
Procedure: A conventional migration assay was used to determine the efficacy of potential receptor antagonists in blocking migration mediated through MIP1b. This assay was routinely performed using the ChemoTX® (Neuroprobe) microchamber system with a 5-mum pore-sized polycarbonate membrane. CCR5 expressing cells (IL-2 Lymphocytes or L1.2CCR5 cells) were harvested by centrifugation of cell suspension at 1000 RPM on a GS-6R Beckman centrifuge. […] An equal volume of cells and compounds were mixed and incubated at room temperature for 15 minutes. Afterwards, 20 μl of the mixture was transferred onto the porous membrane of a migration microchamber, with 29 μl of MIP1b ligand (0.1 nM MIP1b protein) placed at the lower chamber. Following incubation at 37 degrees centigrade (90-minute), the assay was terminated by removing the cell drops from atop the filter. To quantify cells migrated across the membrane, 5 mul_ of 7× CyQUANT® (ThermoFisher) solution was added to each well in the lower chamber, and the fluorescence signal measured on a Spectrafluor Plus fluorescence plate reader (TECAN, Durham, N.C.). The degree of inhibition was determined by comparing migration signals between compound-treated and untreated cells. IC50 calculation was further performed by non-linear squares regression analysis using Graphpad Prism (Graphpad Software, San Diego, Calif.).

Row | trough drug level [2] | CCR5 inhibition (in words) [3] | SMILES | change in body weight compared to vehicle ([1]; FIG. 1) | serum ALT levels ([1]; FIG. 2) | serum AST levels ([1]; FIG. 2) | percentage of Sirius red staining (liver fibrosis) compared to vehicle ([1]; FIG. 4) | serum ALT levels ([2]; 30 mg/kg for 8 weeks) | Sirius red-positive staining (liver fibrosis) ([2]; 30 mg/kg for 8 weeks, FIG. 6)
1 | over IC50 |  | Cc1cnc(C(=O)c2ccnc3[nH]ccc23)c(NS(=O)(=O)c2ccc(Cl)c(C(F)(F)F)c2)c1 [Compound 1] | did not change | reduced | reduced | reduced | significantly reduces | reduces
2 | over IC50 | potent CCR5 inhibitor | CCCCOCCOc1ccc(-c2ccc3c(c2)/C=C(/C(=O)Nc2ccc([S@@+]([O-])Cc4cncn4CCC)cc2)CCCN3CC(C)C)cc1 [CVC, cenicriviroc, reference compound] |  |  |  |  | does not | 
